In ChEMBL document CHEMBL6087408, “Discovery of peptidomimetic spiropyrrolidine derivatives as novel 3CLpro inhibitors against SARS-CoV -2” (Eur J Med Chem, 2025):

Experiments:
SARS-CoV-2 = experiment: Antiviral activity against SARS-CoV-2 infected in human Huh-7 cells transfected with viral replicon incubated for 1 day; format: functional, organism-based; conditions: Severe acute respiratory syndrome coronavirus 2, Huh-7, 24 h; for EC90: time 1 day
[1] = Metabolic stability in mouse liver microsomes assessed as half life at 1 uM preincubated for 5 mins followed by NADPH addition measured upto 45 mins by LC-MS/MS analysis; format: ADME, Microsome; conditions: time < 50 min
[2] = Metabolic stability in human liver microsomes assessed as hepatic clearance at 1 uM preincubated for 5 mins followed by NADPH addition measured upto 45 mins by LC-MS/MS analysis; format: ADME, Microsome; conditions: time < 50 min
[3] = Cytotoxicity against human Huh-7 cells assessed as cell viability by Cell Titer Glo assay; format: toxicity, cell-based
[4] = Metabolic stability in human liver microsomes assessed as half life at 1 uM preincubated for 5 mins followed by NADPH addition measured upto 45 mins by LC-MS/MS analysis; format: ADME, Microsome; conditions: time < 50 min
[5] = molecular target: Replicase polyprotein 1ab (Severe acute respiratory syndrome coronavirus 2, UniProt P0DTD1); experiment: Inhibition of 6His-tagged SARS-CoV-2 3CLpro using Dabcyl-KNSTLQSGLRKE-Edans as substrate preincubated for 60 mins followed by substrate addition by FRET assay
[6] = Metabolic stability in mouse liver microsomes assessed as hepatic clearance at 1 uM preincubated for 5 mins followed by NADPH addition measured upto 45 mins by LC-MS/MS analysis; format: ADME, Microsome; conditions: time < 50 min
[7] = AUC (0 to infinity) in ICR mouse at 10 mg/kg, iv measured for 24 hrs by LC-MS/MS analysis; format: ADME, organism-based; conditions: in vivo
[8] = Half life in ICR mouse at 10 mg/kg, iv measured for 24 hrs by LC-MS/MS analysis; format: ADME, organism-based; conditions: in vivo
[9] = Cmax in ICR mouse at 20 mg/kg, po measured for 24 hrs by LC-MS/MS analysis; format: ADME, organism-based; conditions: in vivo
[10] = Oral bioavailability in ICR mouse at 20 mg/kg measured for 24 hrs by LC-MS/MS analysis; format: ADME, organism-based; conditions: in vivo
[11] = Half life in ICR mouse at 20 mg/kg, po measured for 24 hrs by LC-MS/MS analysis; format: ADME, organism-based; conditions: in vivo
[12] = AUC (0 to t) in ICR mouse at 10 mg/kg, iv measured for 24 hrs by LC-MS/MS analysis; format: ADME, organism-based; conditions: in vivo
[13] = AUC (0 to infinity) in ICR mouse at 20 mg/kg, po measured for 24 hrs by LC-MS/MS analysis; format: ADME, organism-based; conditions: in vivo
[14] = AUC (0 to t) in ICR mouse at 20 mg/kg, po measured for 24 hrs by LC-MS/MS analysis; format: ADME, organism-based; conditions: in vivo
Cathepsin B = Cathepsin B (Homo sapiens, UniProt P07858); experiment: Inhibition of CTSB (unknown origin) incubated for 2 hrs
Procathepsin L = Procathepsin L (Homo sapiens, UniProt P07711); experiment: Inhibition of CTSL (unknown origin) incubated for 2 hrs
Sequence of Procathepsin L (P07711 whole entry): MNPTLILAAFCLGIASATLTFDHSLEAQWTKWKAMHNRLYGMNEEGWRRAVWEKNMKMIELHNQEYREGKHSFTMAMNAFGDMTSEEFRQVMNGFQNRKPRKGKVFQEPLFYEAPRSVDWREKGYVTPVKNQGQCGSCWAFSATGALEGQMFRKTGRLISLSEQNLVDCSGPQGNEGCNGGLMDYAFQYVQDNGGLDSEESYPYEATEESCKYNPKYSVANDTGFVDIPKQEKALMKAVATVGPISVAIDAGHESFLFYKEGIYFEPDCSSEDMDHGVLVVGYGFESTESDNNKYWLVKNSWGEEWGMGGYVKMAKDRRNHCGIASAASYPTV

## CC(C)(C)[C@H](NC(=O)C(F)(F)F)C(=O)N1C[C@H]2[C@@H]([C@H]1C(=O)N[C@H](C#N)C[C@@H]1CCNC1=O)C2(C)C
SARS-CoV-2
  EC90: 186 nM
[1]
  half-life at 1 µM: 1.17 h
[2]
  CLhep predicted at 1 µM: 12.7 mL/min/kg
[3]
  CC50: > 5000 nM
[4]
  half-life at 1 µM: 0.91 h

## N#C[C@@H]1C[C@@]2(CN1C(=O)[C@H](CS(=O)(=O)Cc1ccccc1)NC(=O)[C@@H](NC(=O)C(F)(F)F)C1CC1)C(=O)Nc1ccccc12
[5]
  IC50: 1300 nM

## CN(C(=O)[C@@H](NC(=O)C(F)(F)F)C1CC1)[C@@H](CSCc1ccccc1)C(=O)N1C[C@]2(C[C@H]1C#N)C(=O)Nc1ccccc12
[1]
  half-life at 1 µM: 0.0617 h
[6]
  CLhep predicted at 1 µM: 84.9 mL/min/kg
[5]
  IC50: 40 nM

## CN(C(=O)[C@@H](NC(=O)C(C)(C)F)C1CC1)[C@@H](CSCc1ccccc1)C(=O)N1C[C@]2(C[C@H]1C#N)C(=O)Nc1ccccc12
[1]
  half-life at 1 µM: 0.06 h
[6]
  CLhep predicted at 1 µM: 85.1 mL/min/kg
[5]
  IC50: 43 nM

## N#C[C@@H]1C[C@@]2(CN1C(=O)[C@@H](CSCc1ccc(F)cc1)NC(=O)[C@@H](NC(=O)C(F)(F)F)C1CC1)C(=O)Nc1ccccc12
[7]
  AUC(0-inf): 2130 ng·h/mL
SARS-CoV-2
  EC50: 31 nM
  EC90: 286 nM
[8]
  half-life: 0.47 h
[1]
  half-life at 1 µM: 1.5 h
[6]
  CLhep predicted at 1 µM: 36.8 mL/min/kg
[9]
  Cmax: 1530 ng/mL
[5]
  IC50: 25 nM
[10]
  bioavailability: 22.9%
[2]
  CLhep predicted at 1 µM: 8.8 mL/min/kg
[11]
  half-life: 1.05 h
[12]
  AUC(0-t) at 24 h: 2120 ng·h/mL
[3]
  CC50: > 5000 nM
[4]
  half-life at 1 µM: 1.93 h
[13]
  AUC(0-inf): 972 ng·h/mL
[14]
  AUC(0-t) at 24 h: 970 ng·h/mL

## CC1(C)[C@@H]2[C@@H](C(=O)N3C[C@]4(C[C@H]3C#N)C(=O)Nc3ccccc34)N(C(=O)[C@@H](NC(=O)C(F)(F)F)C3CC3)C[C@@H]21
[5]
  IC50: 886 nM

## CN(C(=O)[C@@H](NC(=O)C(F)(F)F)C1CC1)[C@@H](Cc1ccc(F)cc1)C(=O)N1C[C@]2(C[C@H]1C#N)C(=O)Nc1ccccc12
[7]
  AUC(0-inf): 3420 ng·h/mL
SARS-CoV-2
  EC50: 5 nM
  EC90: 39 nM
[8]
  half-life: 1.99 h
[1]
  half-life at 1 µM: 1.25 h
[6]
  CLhep predicted at 1 µM: 40.8 mL/min/kg
[9]
  Cmax: 1360 ng/mL
[5]
  IC50: 21 nM
Cathepsin B
  IC50: 20700 nM
Procathepsin L
  IC50: 20200 nM
[10]
  bioavailability: 16.2%
[2]
  CLhep predicted at 1 µM: 18.3 mL/min/kg
[11]
  half-life: 2.58 h
[12]
  AUC(0-t) at 24 h: 3420 ng·h/mL
[3]
  CC50: > 5000 nM
[4]
  half-life at 1 µM: 0.207 h
[13]
  AUC(0-inf): 1110 ng·h/mL
[14]
  AUC(0-t) at 24 h: 1110 ng·h/mL

## CN(C(=O)[C@@H](NC(=O)OC(C)(C)C)C1CC1)[C@H](CSCc1ccccc1)C(=O)N1C[C@]2(C[C@H]1C#N)C(=O)Nc1ccccc12
[5]
  IC50: 674 nM

## CC(C)(C)OC(=O)N[C@H](C(=O)N[C@@H](CSCc1ccccc1)C(=O)N1C[C@]2(C[C@H]1C#N)C(=O)Nc1ccccc12)C1CC1
[5]
  IC50: 47 nM

## CN(C(=O)[C@@H](NC(=O)C(C)(C)F)C1CC1)[C@@H](COCc1ccccc1)C(=O)N1C[C@]2(C[C@H]1C#N)C(=O)Nc1ccccc12
[1]
  half-life at 1 µM: 0.0783 h
[6]
  CLhep predicted at 1 µM: 83.6 mL/min/kg
[5]
  IC50: 53 nM

## CC(C)(F)C(=O)N[C@H](C(=O)N[C@@H](CSCc1ccccc1)C(=O)N1C[C@]2(C[C@H]1C#N)C(=O)Nc1ccccc12)C1CC1
[5]
  IC50: 97 nM

## CC(C)(F)C(=O)N[C@H](C(=O)N[C@@H](COCc1ccccc1)C(=O)N1C[C@]2(C[C@H]1C#N)C(=O)Nc1ccccc12)C1CC1
[5]
  IC50: 80 nM

## CN(C(=O)[C@@H](NC(=O)C(F)(F)F)C1CC1)[C@@H](CS(=O)(=O)Cc1ccccc1)C(=O)N1C[C@]2(C[C@H]1C#N)C(=O)Nc1ccccc12
[5]
  IC50: 94 nM

## N#C[C@@H]1C[C@@]2(CN1C(=O)[C@H](CSCc1ccccc1)NC(=O)[C@@H](NC(=O)C(F)(F)F)C1CC1)C(=O)Nc1ccccc12
[5]
  IC50: 298 nM

## CC(C)C[C@H](NC(=O)[C@H]1C[C@@H]1C(=O)O)C(=O)NCCCCNC(=N)N
Cathepsin B
  IC50: 41.4 nM
Procathepsin L
  IC50: 56.2 nM

## CN(C(=O)[C@@H](NC(=O)OC(C)(C)C)C1CC1)[C@@H](CSCc1ccccc1)C(=O)N1C[C@]2(C[C@H]1C#N)C(=O)Nc1ccccc12
[5]
  IC50: 38 nM

## CC(C)(C)[C@H](NC(=O)C(F)(F)F)C(=O)N1C[C@H]2[C@@H]([C@H]1C(=O)N1C[C@]3(CC1C#N)C(=O)Nc1ccccc13)C2(C)C (stereo not given in full)
[5]
  IC50: 248 nM
